Assay: mn = molality of the nth substance listed, in mol/kg
Conditions: 101 kPa, Liquid; for viscosity: Capillary tube (Ostwald / Ubbelohde) method; for mass density: Vibrating tube method

Cc1c(N)cccc1N [2,6-diaminotoluene] + CCCO
Conditions | mass density, 293.15 K [kg/m3] | mass density, 303.15 K [kg/m3] | mass density, 313.15 K [kg/m3] | mass density, 323.15 K [kg/m3] | mass density, 333.15 K [kg/m3] | viscosity, 293.15 K [mPa·s] | viscosity, 303.15 K [mPa·s] | viscosity, 313.15 K [mPa·s] | viscosity, 323.15 K [mPa·s] | viscosity, 333.15 K [mPa·s]
m1 = 0.0501 | 805.5 | 797.18 | 789 | 780.63 | 772.03 | 2.19 | 1.709 | 1.348 | 1.074 | 0.864
m1 = 0.0997 | 807.1 | 798.78 | 790.58 | 782.21 | 773.6 | 2.209 | 1.72 | 1.355 | 1.079 | 0.869
m1 = 0.1498 | 808.7 | 800.36 | 792.16 | 783.77 | 775.16 | 2.226 | 1.734 | 1.365 | 1.086 | 0.874
m1 = 0.1995 | 810.26 | 801.92 | 793.7 | 785.32 | 776.68 | 2.245 | 1.744 | 1.372 | 1.092 | 0.878
m1 = 0.2499 | 811.81 | 803.46 | 795.23 | 786.83 | 778.21 | 2.268 | 1.759 | 1.383 | 1.099 | 0.883
m1 = 0.2994 | 813.34 | 804.95 | 796.73 | 788.33 | 779.69 | 2.282 | 1.77 | 1.391 | 1.106 | 0.888
m1 = 0.3496 | 814.83 | 806.45 | 798.21 | 789.79 | 781.15 | 2.305 | 1.789 | 1.401 | 1.112 | 0.893

Cc1c(N)cccc1N [2,6-diaminotoluene] + CCO
Conditions | mass density, 293.15 K [kg/m3] | mass density, 303.15 K [kg/m3] | mass density, 313.15 K [kg/m3] | mass density, 323.15 K [kg/m3] | mass density, 333.15 K [kg/m3] | viscosity, 293.15 K [mPa·s] | viscosity, 303.15 K [mPa·s] | viscosity, 313.15 K [mPa·s] | viscosity, 323.15 K [mPa·s] | viscosity, 333.15 K [mPa·s]
m1 = 0.0503 | 791.34 | 782.75 | 773.98 | 765.05 | 755.93 | 1.193 | 0.983 | 0.814 | 0.68 | 0.569
m1 = 0.1002 | 793.1 | 784.49 | 775.72 | 766.78 | 757.66 | 1.206 | 0.991 | 0.823 | 0.686 | 0.573
m1 = 0.1497 | 794.82 | 786.2 | 777.43 | 768.49 | 759.36 | 1.221 | 1.002 | 0.829 | 0.69 | 0.578
m1 = 0.1996 | 796.54 | 787.9 | 779.12 | 770.18 | 761.05 | 1.233 | 1.011 | 0.835 | 0.696 | 0.582
m1 = 0.2496 | 798.23 | 789.59 | 780.81 | 771.86 | 762.72 | 1.245 | 1.021 | 0.843 | 0.7 | 0.586
m1 = 0.2997 | 799.92 | 791.26 | 782.49 | 773.53 | 764.4 | 1.258 | 1.03 | 0.849 | 0.707 | 0.591
m1 = 0.3496 | 801.55 | 792.9 | 784.13 | 775.18 | 766.04 | 1.272 | 1.04 | 0.857 | 0.711 | 0.595
m1 = 0.3995 | 803.2 | 794.53 | 785.77 | 776.81 | 767.67 | 1.286 | 1.05 | 0.864 | 0.718 | 0.6
m1 = 0.4497 | 804.84 | 796.16 | 787.4 | 778.43 | 769.3 | 1.3 | 1.061 | 0.872 | 0.723 | 0.604
m1 = 0.4995 | 806.45 | 797.75 | 789 | 780.03 | 770.89 | 1.313 | 1.07 | 0.879 | 0.731 | 0.609
m1 = 0.5495 | 808.02 | 799.33 | 790.56 | 781.61 | 772.46 | 1.328 | 1.08 | 0.888 | 0.736 | 0.613
m1 = 0.5995 | 809.61 | 800.9 | 792.14 | 783.18 | 774.03 | 1.342 | 1.09 | 0.895 | 0.742 | 0.618
m1 = 0.6492 | 811.1 | 802.44 | 793.67 | 784.72 | 775.55 | 1.357 | 1.102 | 0.903 | 0.746 | 0.622
m1 = 0.6984 | 812.63 | 803.98 | 795.19 | 786.23 | 777.07 | 1.372 | 1.112 | 0.91 | 0.753 | 0.626
m1 = 0.7488 | 814.15 | 805.51 | 796.73 | 787.77 | 778.61 | 1.389 | 1.124 | 0.919 | 0.758 | 0.631
m1 = 0.7991 | 815.68 | 807.02 | 798.25 | 789.3 | 780.13 | 1.408 | 1.134 | 0.926 | 0.762 | 0.636
